Holding throughout (assay): NCI-60 cell line screen, 48 h
The test system of assay [1] is NCI/ADR-RES ovarian.
The test system of assay [2] is HCC-2998 colon.
Assay [3] concerns OVCAR-8 ovarian.
Assay [4] has as its system DU-145 prostate.
Assay [5] concerns MCF7 breast.
Assay [6] concerns SK-OV-3 ovarian.
The subject of assay [7] is MALME-3M melanoma.
Assay [8] relates to SK-MEL-5 melanoma.
In assay [9] the test system is SK-MEL-28 melanoma.
The subject of assay [10] is HS 578T breast.
The test system of assay [11] is COLO 205 colon.

Results on 12 compounds are retold here after PubChem BioAssay (NCI).

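In this assay, cells in 96-well plates receive the compound at five concentrations for 48 hours. Endpoints are linearly interpolated between the surrounding concentrations. GI50: concentration for 50% inhibition of growth. TGI: concentration producing complete growth inhibition.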

On to `COC(=O)c1c(O)ccc2c1c1c(n2Cc2ccc(Cl)cc2Cl)C(=O)c2ccccc2C1=O`, for which the TGI in assay [1] was determined as 24.1 µM; in [2], 9.33 µM; in assay [3], 21.4 µM; in assay [4], 31.2 µM; in assay [5], 15.9 µM; in assay [6], 27.6 µM. Also, the TGI in assay [7] worked out at 34.2 µM; in assay [8], 27.1 µM; in [9], 30 µM; in assay [10] it was 33.1 µM; in assay [11] it was 24.3 µM.
As for `CCC[C@H](NS(=O)c1ccc(C)cc1)C(C(=O)OCC)=C(c1ccccc1)c1ccccc1` (stereo partly specified), the TGI is over 100 µM in assay [1]; 15.3 µM in [2]; 97.4 µM in assay [3]; 36.7 µM in assay [4]; 43.2 µM in assay [5]; over 100 µM in assay [6]. For the same compound, the TGI in assay [7] is 36.1 µM; in assay [8], 44.4 µM; in assay [9], 58 µM; in [10], 71.2 µM; in assay [11], 46.1 µM.
On to `CC1Oc2c(c(=O)oc3ccccc23)[C@@]1(C)CC1C[C@H](C)C(=O)O1` (stereo partly specified), for which the TGI in [1] was over 100 µM; in assay [2], 56.2 µM; in assay [3] it was over 100 µM; in assay [4], over 100 µM; in [5] it was over 100 µM; in assay [6], over 100 µM. Further, the TGI is 53.4 µM in assay [7]; over 100 µM in [8]; 38.7 µM in assay [9]; over 100 µM in assay [10]; over 100 µM in assay [11].
With `CCCCC(Sc1cc(Cl)c(C)cc1S(=O)(=O)Nc1n[nH]c(N)n1)C(=O)OC` (stereo unspecified), the TGI in assay [1], in [2], in assay [3], in assay [4], in assay [5] and in assay [6] was over 10 µM in each case. In addition, the TGI in [7], in assay [8], in [9], in assay [10] and in assay [11] was over 10 µM each time.
In the case of `CC(C)NC(=O)OCc1c(COC(=O)NC(C)C)c(-c2cc[n+](COC(=O)C(C)(C)C)cc2)n2c1CCC2`, the TGI in [1], in assay [2], in [3], in assay [4], in assay [5] and in [6] was over 100 µM in each case. Moreover, the TGI in [7], in assay [8], in assay [9], in [10] and in [11] was over 100 µM in each case.
`CC(=O)Nc1ccc(-c2nc3ccccc3s2)cc1I`: the TGI in assay [1] is over 96.3 µM; in [2] it was over 100 µM; in assay [3], 37.7 µM; in [4], over 51 µM; in [5], over 59.5 µM; in [6], 38.2 µM. The TGI is over 94.2 µM in assay [7]; over 100 µM in assay [8]; over 100 µM in assay [9]; over 100 µM in [10]; over 100 µM in assay [11].
Turning to `COCCCNC(=O)C1=C(C)NC(C)=C(C(=O)NCCCOC)C1`, the TGI in assay [1], in assay [2], in assay [3], in assay [4], in [5] and in [6] was over 100 µM each time. Further, the TGI was 41.2 µM in assay [7]; over 100 µM in assay [8]; over 100 µM in assay [9]; over 100 µM in [10]; over 100 µM in [11].
Regarding `CC(=O)NC(CCC(=O)C=[N+]=N)C(=O)O` (stereo unspecified), the TGI in assay [1], in [2], in assay [3], in [4], in assay [5] and in assay [6] was over 100 µM throughout. The TGI in [7], in assay [8], in assay [9], in [10] and in assay [11] was over 100 µM throughout.
As for `[O-][n+]1ccccc1S`, the GI50 was 5.17 µM in assay [1], 3.48 µM in assay [4], 1.93 µM in [5] and 2.91 µM in [10]. The TGI in assay [1] was over 100 µM; in assay [2] it was over 100 µM; in assay [3], over 100 µM; in assay [4], 46.8 µM; in [5], over 100 µM; in assay [6], over 100 µM. In addition, the TGI is 89.1 µM in assay [7]; 30.9 µM in assay [8]; over 100 µM in [9]; 56.4 µM in assay [10]; 1.7 µM in assay [11].
As for `CC(=O)Oc1ccccc1/C=C/C(=O)/C=C/c1ccccc1OC(C)=O`, the TGI stood at 7.39 µM in assay [1]; 4.18 µM in assay [2]; 5.12 µM in assay [3]; 9.59 µM in assay [4]; 4.99 µM in assay [5]; 13.6 µM in [6]. Moreover, the TGI in assay [7] is 6.11 µM; in assay [8], 3.45 µM; in assay [9] it was 4.09 µM; in [10], over 51.9 µM; in assay [11], 4.06 µM.
In the case of `CCN(CC)c1ccc2cc(C(=O)Nc3ccccc3)c(=N)oc2c1`, the TGI in assay [1], in assay [2], in [3], in [4], in assay [5] and in assay [6] was over 100 µM in each case. Also, the TGI in [7], in assay [8], in assay [9], in assay [10] and in assay [11] was over 100 µM in each case.
In the case of `Cc1nc2c(=O)n(-c3ccccc3)c3ccccc3c2o1`, the TGI in assay [1], in [2], in [3], in [4], in [5] and in assay [6] was over 100 µM throughout. Moreover, the TGI in [7], in assay [8], in assay [9], in assay [10] and in assay [11] was over 100 µM each time.
